ChEMBL document CHEMBL4020759, “Sulfoximines as ATR inhibitors: Analogs of VE-821” (2017)
Active and inactive are the calls of the source. The rule behind the calls is not given here.

Columns and labels:
KM12 = experiment: Growth inhibition of human KM12 cells assessed as cell growth at 10 uM incubated for 48 hrs by sulforhodamine B assay; assay type: functional; conditions: KM12, 48 h, read-out: Activity
COLO 205 = experiment: Growth inhibition of human COLO205 cells assessed as cell growth at 10 uM incubated for 48 hrs by sulforhodamine B assay; assay type: functional; conditions: COLO 205, 48 h, read-out: Activity
RPMI-8226 = experiment: Growth inhibition of human RPMI8226 cells assessed as cell growth at 10 uM incubated for 48 hrs by sulforhodamine B assay; assay type: functional; conditions: RPMI-8226, 48 h, read-out: Activity
CAKI-1 = experiment: Growth inhibition of human Caki1 cells assessed as cell growth at 10 uM incubated for 48 hrs by sulforhodamine B assay; assay type: functional; conditions: CAKI-1, 48 h, read-out: Activity
HT-29 = experiment: Growth inhibition of human HT-29 cells assessed as cell growth at 10 uM incubated for 48 hrs by sulforhodamine B assay; assay type: functional; conditions: HT-29, 48 h, read-out: Activity
SK-MEL-2 = experiment: Growth inhibition of human SK-MEL-2 cells assessed as cell growth at 10 uM incubated for 48 hrs by sulforhodamine B assay; assay type: functional; conditions: SK-MEL-2, 48 h, read-out: Activity
[1] = molecular target: Serine/threonine-protein kinase ATR (Homo sapiens) (UniProt Q13535); experiment: Inhibition of ATR in human Ramos cells assessed as reduction in […] at 10 uM after 48 hrs by Western blot analysis; assay type: cell-based
TK-10 = experiment: Growth inhibition of human TK10 cells assessed as cell growth at 10 uM incubated for 48 hrs by sulforhodamine B assay; assay type: functional; conditions: TK-10, 48 h, read-out: Activity
Malme-3M = experiment: Growth inhibition of human MALME-3M cells assessed as cell growth at 10 uM incubated for 48 hrs by sulforhodamine B assay; assay type: functional; conditions: read-out: Activity
SNB-75 = experiment: Growth inhibition of human SNB75 cells assessed as cell growth at 10 uM incubated for 48 hrs by sulforhodamine B assay; assay type: functional; conditions: SNB-75, 48 h, read-out: Activity
[2] = molecular target: Serine/threonine-protein kinase ATR (Homo sapiens) (UniProt Q13535); experiment: Inhibition of ATR in human U2OS cells assessed as reduction in hydroxyurea-induced Chk-1 phosphorylation at Ser345 residue preincubated for 1 hr followed by hydroxyurea challenge measured after 2 hrs by Western blot analysis; assay type: cell-based
NCI-H23 = experiment: Growth inhibition of human NCI-H23 cells assessed as cell growth at 10 uM incubated for 48 hrs by sulforhodamine B assay; assay type: functional; conditions: NCI-H23, 48 h, read-out: Activity
[3] = molecular target: Serine/threonine-protein kinase ATR (Homo sapiens) (UniProt Q13535); experiment: Inhibition of ATR in human U2OS cells assessed as reduction in hydroxyurea-induced H2AX phosphorylation at Ser139 residue at 3 to 10 uM preincubated for 1 hr followed by hydroxyurea challenge measured after 2 hrs by Western blot analysis; assay type: cell-based
UACC-257 = experiment: Growth inhibition of human UACC257 cells assessed as cell growth at 10 uM incubated for 48 hrs by sulforhodamine B assay; assay type: functional; conditions: UACC-257, 48 h, read-out: Activity
DU-145 = experiment: Growth inhibition of human DU145 cells assessed as cell growth at 10 uM incubated for 48 hrs by sulforhodamine B assay; assay type: functional; conditions: DU-145, 48 h, read-out: Activity
MDA-MB-468 = experiment: Growth inhibition of human MDA-MB-468 cells assessed as cell growth at 10 uM incubated for 48 hrs by sulforhodamine B assay; assay type: functional; conditions: MDA-MB-468, 48 h, read-out: Activity
RXF 393 = experiment: Growth inhibition of human RXF393 cells assessed as cell growth at 10 uM incubated for 48 hrs by sulforhodamine B assay; assay type: functional; conditions: RXF 393, 48 h, read-out: Activity
SN12C = experiment: Growth inhibition of human SN12C cells assessed as cell growth at 10 uM incubated for 48 hrs by sulforhodamine B assay; assay type: functional; conditions: read-out: Activity
NCI-H460 = experiment: Growth inhibition of human NCI-H460 cells assessed as cell growth at 10 uM incubated for 48 hrs by sulforhodamine B assay; assay type: functional; conditions: NCI-H460, 48 h, read-out: Activity
[4] = molecular target: Serine/threonine-protein kinase ATR (Homo sapiens) (UniProt Q13535); experiment: Inhibition of ATR in human U2OS cells assessed as reduction in hydroxyurea-induced Chk-1 phosphorylation at Ser345 residue at 10 uM preincubated for 1 hr followed by hydroxyurea challenge measured after 1 hr by Western blot analysis; assay type: cell-based
786-0 = experiment: Growth inhibition of human 786-0 cells assessed as cell growth at 10 uM incubated for 48 hrs by sulforhodamine B assay; assay type: functional; conditions: 786-0, 48 h, read-out: Activity
PC-3 = experiment: Growth inhibition of human PC3 cells assessed as cell growth at 10 uM incubated for 48 hrs by sulforhodamine B assay; assay type: functional; conditions: PC-3, 48 h, read-out: Activity
K562 = experiment: Growth inhibition of human K562 cells assessed as cell growth at 10 uM incubated for 48 hrs by sulforhodamine B assay; assay type: functional; conditions: K562, 48 h, read-out: Activity
SF-539 = experiment: Growth inhibition of human SF539 cells assessed as cell growth at 10 uM incubated for 48 hrs by sulforhodamine B assay; assay type: functional; conditions: SF-539, 48 h, read-out: Activity
U-251 = experiment: Growth inhibition of human U251 cells assessed as cell growth at 10 uM incubated for 48 hrs by sulforhodamine B assay; assay type: functional; conditions: U-251, 48 h, read-out: Activity
OVCAR-4 = experiment: Growth inhibition of human OVCAR4 cells assessed as cell growth at 10 uM incubated for 48 hrs by sulforhodamine B assay; assay type: functional; conditions: OVCAR-4, 48 h, read-out: Activity
[5] = molecular target: Serine/threonine-protein kinase ATR (Homo sapiens) (UniProt Q13535); experiment: Inhibition of ATR in human U2OS cells assessed as reduction in hydroxyurea-induced Chk-1 phosphorylation at Ser345 residue by measuring ratio of GAPDH level to phosphorylated Chk-1 level at 3 uM preincubated for 1 hr followed by hydroxyurea challenge measured after 2 hrs by Western blot analysis; assay type: cell-based
[6] = molecular target: Serine-protein kinase ATM (Homo sapiens) (UniProt Q13315); experiment: Inhibition of ATM in human U2OS cells assessed as reduction in hydroxyurea-induced Chk-2 phosphorylation at Thr68 residue at 10 uM preincubated for 1 hr followed by hydroxyurea challenge measured after 1 hr by Western blot analysis; assay type: cell-based
SF-295 = experiment: Growth inhibition of human SF295 cells assessed as cell growth at 10 uM incubated for 48 hrs by sulforhodamine B assay; assay type: functional; conditions: SF-295, 48 h, read-out: Activity
MDA-MB-435 = experiment: Growth inhibition of human MDA-MB-435 cells assessed as cell growth at 10 uM incubated for 48 hrs by sulforhodamine B assay; assay type: functional; conditions: MDA-MB-435, 48 h, read-out: Activity
HOP-92 = experiment: Growth inhibition of human HOP92 cells assessed as cell growth at 10 uM incubated for 48 hrs by sulforhodamine B assay; assay type: functional; conditions: HOP-92, 48 h, read-out: Activity
A498 = experiment: Growth inhibition of human A498 cells assessed as cell growth at 10 uM incubated for 48 hrs by sulforhodamine B assay; assay type: functional; conditions: A498, 48 h, read-out: Activity

Sequence of Serine/threonine-protein kinase ATR (Homo sapiens) (Q13535 whole entry, looked up): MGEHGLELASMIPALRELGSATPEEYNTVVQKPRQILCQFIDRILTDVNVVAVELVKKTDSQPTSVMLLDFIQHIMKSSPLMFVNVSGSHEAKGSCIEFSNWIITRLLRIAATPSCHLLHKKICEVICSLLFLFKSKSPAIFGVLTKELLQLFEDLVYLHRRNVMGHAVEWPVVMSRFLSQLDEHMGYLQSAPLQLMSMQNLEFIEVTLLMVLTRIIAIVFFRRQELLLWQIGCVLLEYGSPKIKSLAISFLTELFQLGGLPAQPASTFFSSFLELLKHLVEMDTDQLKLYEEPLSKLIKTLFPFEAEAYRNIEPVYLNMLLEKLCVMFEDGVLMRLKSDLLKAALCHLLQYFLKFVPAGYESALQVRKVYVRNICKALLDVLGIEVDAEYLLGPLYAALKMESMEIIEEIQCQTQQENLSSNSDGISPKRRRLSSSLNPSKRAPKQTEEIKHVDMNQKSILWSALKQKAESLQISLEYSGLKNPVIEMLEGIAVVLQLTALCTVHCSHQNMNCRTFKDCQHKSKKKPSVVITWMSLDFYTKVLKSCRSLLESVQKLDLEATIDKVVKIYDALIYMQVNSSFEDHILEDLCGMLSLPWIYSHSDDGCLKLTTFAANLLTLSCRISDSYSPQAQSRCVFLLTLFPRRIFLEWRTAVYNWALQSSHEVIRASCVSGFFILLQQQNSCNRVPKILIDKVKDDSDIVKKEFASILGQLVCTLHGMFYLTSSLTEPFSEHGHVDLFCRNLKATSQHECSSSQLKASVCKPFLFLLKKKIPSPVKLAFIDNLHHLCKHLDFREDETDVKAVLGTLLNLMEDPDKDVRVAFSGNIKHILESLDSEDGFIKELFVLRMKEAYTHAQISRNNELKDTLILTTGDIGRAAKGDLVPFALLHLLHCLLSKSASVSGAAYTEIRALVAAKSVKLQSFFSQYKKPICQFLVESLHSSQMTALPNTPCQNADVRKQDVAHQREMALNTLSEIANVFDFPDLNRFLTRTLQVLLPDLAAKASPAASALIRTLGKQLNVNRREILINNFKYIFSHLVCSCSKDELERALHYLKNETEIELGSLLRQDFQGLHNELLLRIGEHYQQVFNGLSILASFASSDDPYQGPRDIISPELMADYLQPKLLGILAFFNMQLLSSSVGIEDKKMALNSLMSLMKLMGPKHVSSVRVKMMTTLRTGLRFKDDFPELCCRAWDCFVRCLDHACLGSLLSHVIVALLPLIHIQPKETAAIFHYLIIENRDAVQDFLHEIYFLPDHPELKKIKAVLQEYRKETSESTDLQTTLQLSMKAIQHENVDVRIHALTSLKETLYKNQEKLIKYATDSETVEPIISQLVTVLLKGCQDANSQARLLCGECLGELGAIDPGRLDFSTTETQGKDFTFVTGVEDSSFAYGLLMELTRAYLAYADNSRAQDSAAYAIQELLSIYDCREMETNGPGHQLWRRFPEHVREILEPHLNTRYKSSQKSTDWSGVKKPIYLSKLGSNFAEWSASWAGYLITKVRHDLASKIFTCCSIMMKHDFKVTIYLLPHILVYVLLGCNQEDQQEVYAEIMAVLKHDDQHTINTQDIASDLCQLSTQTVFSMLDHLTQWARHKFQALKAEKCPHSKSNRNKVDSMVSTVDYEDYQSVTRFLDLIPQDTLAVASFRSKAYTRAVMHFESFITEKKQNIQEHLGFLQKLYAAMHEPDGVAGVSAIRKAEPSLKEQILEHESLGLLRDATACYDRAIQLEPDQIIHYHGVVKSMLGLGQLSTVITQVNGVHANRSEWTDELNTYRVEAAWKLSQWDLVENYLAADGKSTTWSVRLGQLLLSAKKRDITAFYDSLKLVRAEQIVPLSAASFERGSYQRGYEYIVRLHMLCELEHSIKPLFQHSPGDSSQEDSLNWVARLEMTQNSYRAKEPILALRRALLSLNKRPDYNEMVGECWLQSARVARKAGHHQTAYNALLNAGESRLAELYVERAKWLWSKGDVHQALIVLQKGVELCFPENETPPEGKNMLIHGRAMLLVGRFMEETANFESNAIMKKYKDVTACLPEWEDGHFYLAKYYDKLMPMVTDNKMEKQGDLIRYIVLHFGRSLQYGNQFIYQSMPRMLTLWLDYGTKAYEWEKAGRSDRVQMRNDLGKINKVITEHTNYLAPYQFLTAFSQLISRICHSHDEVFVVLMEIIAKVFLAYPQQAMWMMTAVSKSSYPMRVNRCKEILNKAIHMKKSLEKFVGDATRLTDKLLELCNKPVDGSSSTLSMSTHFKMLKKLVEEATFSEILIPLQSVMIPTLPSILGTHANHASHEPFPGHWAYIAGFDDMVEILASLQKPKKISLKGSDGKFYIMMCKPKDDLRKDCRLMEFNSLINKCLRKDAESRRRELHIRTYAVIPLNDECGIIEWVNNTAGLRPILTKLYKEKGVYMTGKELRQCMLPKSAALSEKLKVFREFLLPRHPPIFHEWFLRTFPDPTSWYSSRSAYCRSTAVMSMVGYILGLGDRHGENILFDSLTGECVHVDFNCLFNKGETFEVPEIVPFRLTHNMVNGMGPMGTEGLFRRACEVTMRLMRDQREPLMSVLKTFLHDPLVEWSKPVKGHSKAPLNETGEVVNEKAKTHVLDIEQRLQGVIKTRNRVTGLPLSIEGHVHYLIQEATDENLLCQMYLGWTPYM

Row | Compound | growth at 10 µM (KM12) | growth at 10 µM (COLO 205) | growth at 10 µM (RPMI-8226) | growth at 10 µM (CAKI-1) | growth at 10 µM (HT-29) | growth at 10 µM (SK-MEL-2) | inhibition [1] | growth at 10 µM (TK-10) | growth at 10 µM (Malme-3M) | growth at 10 µM (SNB-75) | inhibition [2] | growth at 10 µM (NCI-H23) | inhibition [3] | growth at 10 µM (UACC-257) | growth at 10 µM (DU-145) | growth at 10 µM (MDA-MB-468) | growth at 10 µM (RXF 393) | growth at 10 µM (SN12C) | growth at 10 µM (NCI-H460) | inhibition [4] | other results
1 | C/S(=N\C#N)c1ccc(-c2cnc(N)c(C(=O)Nc3ccccc3)n2)cc1 (centres undefined) | 86.5% | 76.9% | 101% | 53.2% | 76.3% | 92.2% | Active | 93.6% | 80% | 65.2% | Dose-dependent effect | 98.2% | Dose-dependent effect | 106% | 80.3% | 84.6% | 62.9% | 82.4% | 87.4% | Active | growth at 10 µM (786-0): 59.5%; growth at 10 µM (PC-3): 86%; growth at 10 µM (K562): 62.2%; growth at 10 µM (SF-539): 85.7%; growth at 10 µM (U-251): 93.2%; growth at 10 µM (OVCAR-4): 87.3%; Ratio [5]: 40.1; inhibition [6]: inactive; growth at 10 µM (SF-295): 114%; growth at 10 µM (MDA-MB-435): 84%; growth at 10 µM (HOP-92): 93.4%; growth at 10 µM (A498): 86.3%
2 | CS(=O)(=NC#N)c1ccc(-c2cnc(N)c(C(=O)Nc3ccccc3)n2)cc1 (centres undefined) | 78.2% | 88.3% | 105% | 47.2% | 79.9% | 94% | Active | 97.4% | 127% | 56.9% | Dose-dependent effect | 81.2% | Dose-dependent effect | 102% | 75.6% | 96.7% | 71% | 78.8% | 83.9% | Active | growth at 10 µM (786-0): 45.5%; growth at 10 µM (PC-3): 90.2%; growth at 10 µM (K562): 70.8%; growth at 10 µM (SF-539): 69%; growth at 10 µM (U-251): 68.5%; growth at 10 µM (OVCAR-4): 97%; Ratio [5]: 58.1; inhibition [6]: inactive; growth at 10 µM (SF-295): 99.2%; growth at 10 µM (MDA-MB-435): 87.7%; growth at 10 µM (HOP-92): 106%; growth at 10 µM (A498): 76.1%
